Experimental data as given in ChEMBL document CHEMBL3813616, “Discovery of novel 7-azaindoles as PDK1 inhibitors” (Bioorg Med Chem Lett, 2016).

How the values were obtained:
[1] = molecular target: Ephrin type-A receptor 4 (Homo sapiens) (UniProt P54764); test: Inhibition of human EPHA4 (570 to 986 residues) assessed as enzyme activity at 1 uM using 33P ATP by radioactive filter binding assay; design: scale not given: the % may be the effect or the level left
[2] = molecular target: Receptor tyrosine-protein kinase erbB-4 (Homo sapiens) (UniProt Q15303); test: Inhibition of human HER4 (706 to 991 residues) assessed as enzyme activity at 1 uM using 33P ATP by radioactive filter binding assay; design: scale not given: the % may be the effect or the level left
[3] = molecular target: Mitogen-activated protein kinase 10 (Homo sapiens) (UniProt P53779); test: Inhibition of human JNK3alpha1 assessed as enzyme activity at 1 uM using 33P ATP by radioactive filter binding assay; design: scale not given: the % may be the effect or the level left
[4] = molecular target: High affinity nerve growth factor receptor (Homo sapiens) (UniProt P04629); test: Inhibition of human TrkA (441 to 760 residues) assessed as enzyme activity at 1 uM using 33P ATP by radioactive filter binding assay; design: scale not given: the % may be the effect or the level left
[5] = molecular target: Serine/threonine-protein kinase 33 (Homo sapiens) (UniProt Q9BYT3); test: Inhibition of human STK33 (1 to 514 residues) assessed as enzyme activity at 1 uM using 33P ATP by radioactive filter binding assay; design: scale not given: the % may be the effect or the level left
[6] = molecular target: Serine/threonine-protein kinase 26 (Homo sapiens) (UniProt Q9P289); test: Inhibition of human MST4 (1 to 416 residues) assessed as enzyme activity at 1 uM using 33P ATP by radioactive filter binding assay; design: scale not given: the % may be the effect or the level left
[7] = molecular target: Serine/threonine-protein kinase PLK1 (Homo sapiens) (UniProt P53350); test: Inhibition of human PLK1 (1 to 603 residues) assessed as enzyme activity at 1 uM using 33P ATP by radioactive filter binding assay; design: scale not given: the % may be the effect or the level left
[8] = molecular target: Aurora kinase C (Homo sapiens) (UniProt Q9UQB9); test: Inhibition of AURKC (unknown origin) assessed as enzyme activity at 1 uM using 33P ATP by radioactive filter binding assay; design: scale not given: the % may be the effect or the level left
[9] = molecular target: NUAK family SNF1-like kinase 1 (Homo sapiens) (UniProt O60285); test: Inhibition of human NUAK1 (2 to 660 residues) assessed as enzyme activity at 1 uM using 33P ATP by radioactive filter binding assay; design: scale not given: the % may be the effect or the level left
[10] = molecular target: Homeodomain-interacting protein kinase 3 (Homo sapiens) (UniProt Q9H422); test: Inhibition of human HIPK3 (161 to 562 residues) assessed as enzyme activity at 1 uM using 33P ATP by radioactive filter binding assay; design: scale not given: the % may be the effect or the level left
[11] = molecular target: Insulin-like growth factor 1 receptor (Homo sapiens) (UniProt P08069); test: Inhibition of human IGF1R (954 to 1367 residues) assessed as enzyme activity at 1 uM using 33P ATP by radioactive filter binding assay; design: scale not given: the % may be the effect or the level left
[12] = molecular target: Protein kinase C alpha type (Homo sapiens) (UniProt P17252); test: Inhibition of human PKCalpha (1 to 672 residues) assessed as enzyme activity at 1 uM using 33P ATP by radioactive filter binding assay; design: scale not given: the % may be the effect or the level left
[13] = molecular target: T1, Inhibitor of nuclear factor kappa-B kinase subunit epsilon (Homo sapiens) (UniProt Q14164); test: Inhibition of human IKBKE (1 to 716 residues) assessed as enzyme activity at 1 uM using 33P ATP by radioactive filter binding assay; design: scale not given: the % may be the effect or the level left
T1 sequence (whole entry): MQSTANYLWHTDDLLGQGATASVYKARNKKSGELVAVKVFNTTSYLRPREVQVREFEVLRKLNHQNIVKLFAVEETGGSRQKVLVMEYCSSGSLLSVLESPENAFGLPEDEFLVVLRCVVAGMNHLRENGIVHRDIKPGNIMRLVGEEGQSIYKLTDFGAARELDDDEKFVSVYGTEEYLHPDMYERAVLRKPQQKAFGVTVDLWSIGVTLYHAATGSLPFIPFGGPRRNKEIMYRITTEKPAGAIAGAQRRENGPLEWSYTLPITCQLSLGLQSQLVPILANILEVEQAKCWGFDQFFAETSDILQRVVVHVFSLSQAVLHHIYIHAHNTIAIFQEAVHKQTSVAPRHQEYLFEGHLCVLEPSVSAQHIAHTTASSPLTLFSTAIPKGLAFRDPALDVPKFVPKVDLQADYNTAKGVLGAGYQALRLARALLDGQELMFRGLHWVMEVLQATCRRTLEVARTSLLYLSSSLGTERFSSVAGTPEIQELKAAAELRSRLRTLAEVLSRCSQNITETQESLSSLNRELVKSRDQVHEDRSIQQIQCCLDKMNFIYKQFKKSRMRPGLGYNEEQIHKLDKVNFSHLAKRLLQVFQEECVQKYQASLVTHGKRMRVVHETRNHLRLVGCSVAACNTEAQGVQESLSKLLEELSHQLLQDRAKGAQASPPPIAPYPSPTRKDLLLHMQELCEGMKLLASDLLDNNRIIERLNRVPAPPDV

[14] = molecular target: MAP kinase-activated protein kinase 3 (Homo sapiens) (UniProt Q16644); test: Inhibition of human MAPKAPK3 (2 to 382 residues) assessed as enzyme activity at 1 uM using 33P ATP by radioactive filter binding assay; design: scale not given: the % may be the effect or the level left
[15] = molecular target: T2, Lymphokine-activated killer T-cell-originated protein kinase (Homo sapiens) (UniProt Q96KB5); test: Inhibition of human PBK (2 to 297 residues) assessed as enzyme activity at 1 uM using 33P ATP by radioactive filter binding assay; design: scale not given: the % may be the effect or the level left
T2 sequence (whole entry): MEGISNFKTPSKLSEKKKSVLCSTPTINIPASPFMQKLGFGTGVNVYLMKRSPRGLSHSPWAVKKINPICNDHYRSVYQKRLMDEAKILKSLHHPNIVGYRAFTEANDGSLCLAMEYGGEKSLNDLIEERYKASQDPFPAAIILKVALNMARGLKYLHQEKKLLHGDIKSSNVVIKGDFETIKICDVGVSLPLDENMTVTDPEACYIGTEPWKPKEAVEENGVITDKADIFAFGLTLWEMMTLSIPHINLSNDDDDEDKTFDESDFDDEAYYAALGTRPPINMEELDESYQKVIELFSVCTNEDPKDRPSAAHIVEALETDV

[16] = molecular target: Ribosomal protein S6 kinase alpha-3 (Homo sapiens) (UniProt P51812); test: Inhibition of human MAPKAPK1beta assessed as enzyme activity at 1 uM using 33P ATP by radioactive filter binding assay; design: scale not given: the % may be the effect or the level left
[17] = molecular target: Serine/threonine-protein kinase Nek7 (Homo sapiens) (UniProt Q8TDX7); test: Inhibition of NEK7 (unknown origin) assessed as enzyme activity at 1 uM using 33P ATP by radioactive filter binding assay; design: scale not given: the % may be the effect or the level left
[18] = molecular target: Homeodomain-interacting protein kinase 1 (Homo sapiens) (UniProt Q86Z02); test: Inhibition of human HIPK1 (158 to 555 residues) assessed as enzyme activity at 1 uM using 33P ATP by radioactive filter binding assay; design: scale not given: the % may be the effect or the level left
[19] = Intrinsic clearance in mouse liver microsomes; format: ADME; conditions: read-out: CLH
[20] = Permeability across apical to basolateral side in human Caco2 cells; format: ADME, cell-based; conditions: Caco-2
[21] = Intrinsic clearance in human liver microsomes; format: ADME; conditions: read-out: CLH
[22] = molecular target: Phosphatidylinositol 4,5-bisphosphate 3-kinase catalytic subunit beta isoform (Homo sapiens, UniProt P42338); test: Inhibition of PI3K beta (unknown origin)
[23] = Efflux ratio of permeability from basolateral to apical over apical to basolateral side in human Caco2 cells; format: ADME, cell-based; conditions: Caco-2

Ribosomal protein S6 kinase alpha-3 (Homo sapiens), sequence (P51812 whole entry): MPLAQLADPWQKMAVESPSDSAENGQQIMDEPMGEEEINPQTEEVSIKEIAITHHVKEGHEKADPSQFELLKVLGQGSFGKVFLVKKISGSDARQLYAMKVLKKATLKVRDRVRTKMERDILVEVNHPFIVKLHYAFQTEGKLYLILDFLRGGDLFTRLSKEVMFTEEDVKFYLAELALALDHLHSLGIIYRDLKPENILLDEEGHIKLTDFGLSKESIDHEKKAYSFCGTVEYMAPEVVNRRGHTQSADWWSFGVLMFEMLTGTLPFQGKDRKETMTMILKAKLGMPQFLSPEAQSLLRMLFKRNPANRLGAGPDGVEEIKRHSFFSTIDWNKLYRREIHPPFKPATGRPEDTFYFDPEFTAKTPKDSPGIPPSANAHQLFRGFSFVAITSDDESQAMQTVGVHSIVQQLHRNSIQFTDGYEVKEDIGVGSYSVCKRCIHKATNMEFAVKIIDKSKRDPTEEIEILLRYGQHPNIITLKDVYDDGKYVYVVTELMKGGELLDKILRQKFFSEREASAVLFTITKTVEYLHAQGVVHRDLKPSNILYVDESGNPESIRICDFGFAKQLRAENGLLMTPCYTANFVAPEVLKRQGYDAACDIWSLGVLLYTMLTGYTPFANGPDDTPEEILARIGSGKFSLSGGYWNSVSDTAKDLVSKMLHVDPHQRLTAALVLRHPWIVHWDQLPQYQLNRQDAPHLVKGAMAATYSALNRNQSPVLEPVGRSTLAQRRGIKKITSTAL
Serine/threonine-protein kinase PLK1 (Homo sapiens), sequence (P53350 whole entry, the tested form may be a part): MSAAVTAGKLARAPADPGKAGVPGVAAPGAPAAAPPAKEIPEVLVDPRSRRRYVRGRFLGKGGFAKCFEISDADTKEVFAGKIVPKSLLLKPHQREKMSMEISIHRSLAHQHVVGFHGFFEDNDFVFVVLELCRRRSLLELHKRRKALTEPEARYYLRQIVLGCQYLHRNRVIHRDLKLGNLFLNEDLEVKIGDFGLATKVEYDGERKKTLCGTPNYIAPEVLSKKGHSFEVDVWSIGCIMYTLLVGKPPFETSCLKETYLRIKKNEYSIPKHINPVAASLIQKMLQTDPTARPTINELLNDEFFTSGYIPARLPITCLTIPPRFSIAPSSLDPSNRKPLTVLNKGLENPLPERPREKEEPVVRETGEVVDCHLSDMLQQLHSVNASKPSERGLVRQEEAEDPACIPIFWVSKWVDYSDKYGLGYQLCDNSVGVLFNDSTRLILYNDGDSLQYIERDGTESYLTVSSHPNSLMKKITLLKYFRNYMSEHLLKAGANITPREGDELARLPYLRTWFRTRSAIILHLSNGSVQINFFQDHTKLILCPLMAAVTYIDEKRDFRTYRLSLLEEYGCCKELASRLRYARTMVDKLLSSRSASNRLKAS
Insulin-like growth factor 1 receptor (Homo sapiens), sequence (P08069 31-736 limits assumed): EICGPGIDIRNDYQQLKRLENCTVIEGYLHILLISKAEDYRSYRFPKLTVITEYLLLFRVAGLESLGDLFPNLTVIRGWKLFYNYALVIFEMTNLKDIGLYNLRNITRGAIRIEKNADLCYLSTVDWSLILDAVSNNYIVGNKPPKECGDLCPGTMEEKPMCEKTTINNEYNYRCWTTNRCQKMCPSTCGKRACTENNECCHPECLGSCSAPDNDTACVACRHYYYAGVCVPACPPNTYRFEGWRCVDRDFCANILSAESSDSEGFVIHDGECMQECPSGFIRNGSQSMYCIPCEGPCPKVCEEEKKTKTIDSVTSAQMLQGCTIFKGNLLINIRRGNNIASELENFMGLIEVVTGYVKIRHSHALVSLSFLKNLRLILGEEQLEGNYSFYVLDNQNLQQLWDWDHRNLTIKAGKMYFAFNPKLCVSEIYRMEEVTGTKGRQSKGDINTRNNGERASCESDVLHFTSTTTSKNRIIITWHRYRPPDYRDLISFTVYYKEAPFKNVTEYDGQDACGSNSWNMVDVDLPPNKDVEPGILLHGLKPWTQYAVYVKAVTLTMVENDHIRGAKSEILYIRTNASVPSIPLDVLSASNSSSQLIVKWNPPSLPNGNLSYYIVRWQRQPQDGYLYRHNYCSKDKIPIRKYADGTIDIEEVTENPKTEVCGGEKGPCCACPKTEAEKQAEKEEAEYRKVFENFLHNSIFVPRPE
Insulin-like growth factor 1 receptor (Homo sapiens), sequence (P08069 741-1367 limits assumed): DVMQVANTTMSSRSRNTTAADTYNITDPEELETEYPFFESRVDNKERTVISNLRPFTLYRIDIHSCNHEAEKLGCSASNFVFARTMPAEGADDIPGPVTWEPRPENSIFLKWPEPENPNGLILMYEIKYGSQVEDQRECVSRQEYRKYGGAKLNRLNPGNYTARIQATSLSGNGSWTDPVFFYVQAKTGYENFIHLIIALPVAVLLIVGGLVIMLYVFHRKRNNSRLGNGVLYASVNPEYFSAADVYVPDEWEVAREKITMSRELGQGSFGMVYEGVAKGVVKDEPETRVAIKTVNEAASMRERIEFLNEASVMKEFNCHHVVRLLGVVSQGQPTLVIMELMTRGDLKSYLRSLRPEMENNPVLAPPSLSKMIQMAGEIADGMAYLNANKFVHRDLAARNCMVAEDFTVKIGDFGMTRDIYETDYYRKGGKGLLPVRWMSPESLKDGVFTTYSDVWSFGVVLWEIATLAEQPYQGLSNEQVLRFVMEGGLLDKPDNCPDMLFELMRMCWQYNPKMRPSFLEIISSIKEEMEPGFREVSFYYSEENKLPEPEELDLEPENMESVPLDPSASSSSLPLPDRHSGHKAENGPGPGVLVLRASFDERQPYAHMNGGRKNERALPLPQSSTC
Serine/threonine-protein kinase 26 (Homo sapiens), sequence (Q9P289 2-416 limits assumed): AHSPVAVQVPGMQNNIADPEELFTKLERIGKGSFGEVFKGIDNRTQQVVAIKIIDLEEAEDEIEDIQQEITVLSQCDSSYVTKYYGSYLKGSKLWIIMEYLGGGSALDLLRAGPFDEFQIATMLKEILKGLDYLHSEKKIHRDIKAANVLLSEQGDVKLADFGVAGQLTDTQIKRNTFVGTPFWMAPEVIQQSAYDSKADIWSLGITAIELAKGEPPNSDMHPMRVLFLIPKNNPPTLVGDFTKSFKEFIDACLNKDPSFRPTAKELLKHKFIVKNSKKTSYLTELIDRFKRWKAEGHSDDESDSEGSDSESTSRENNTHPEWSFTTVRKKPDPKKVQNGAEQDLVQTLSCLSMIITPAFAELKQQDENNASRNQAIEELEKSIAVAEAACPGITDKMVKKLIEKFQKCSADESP
MAP kinase-activated protein kinase 3 (Homo sapiens), sequence (Q16644 whole entry, looked up, the tested form may be a part): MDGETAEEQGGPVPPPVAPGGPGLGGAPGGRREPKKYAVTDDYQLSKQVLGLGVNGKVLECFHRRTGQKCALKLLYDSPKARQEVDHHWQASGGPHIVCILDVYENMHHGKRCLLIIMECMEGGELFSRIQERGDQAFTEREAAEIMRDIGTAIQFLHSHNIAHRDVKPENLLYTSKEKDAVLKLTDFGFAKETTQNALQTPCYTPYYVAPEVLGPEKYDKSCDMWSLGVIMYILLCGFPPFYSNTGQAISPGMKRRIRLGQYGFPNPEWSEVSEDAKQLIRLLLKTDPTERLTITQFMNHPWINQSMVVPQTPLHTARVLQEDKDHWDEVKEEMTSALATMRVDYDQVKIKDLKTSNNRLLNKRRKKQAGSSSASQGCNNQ
Serine/threonine-protein kinase Nek7 (Homo sapiens), sequence (Q8TDX7 whole entry, looked up, the tested form may be a part): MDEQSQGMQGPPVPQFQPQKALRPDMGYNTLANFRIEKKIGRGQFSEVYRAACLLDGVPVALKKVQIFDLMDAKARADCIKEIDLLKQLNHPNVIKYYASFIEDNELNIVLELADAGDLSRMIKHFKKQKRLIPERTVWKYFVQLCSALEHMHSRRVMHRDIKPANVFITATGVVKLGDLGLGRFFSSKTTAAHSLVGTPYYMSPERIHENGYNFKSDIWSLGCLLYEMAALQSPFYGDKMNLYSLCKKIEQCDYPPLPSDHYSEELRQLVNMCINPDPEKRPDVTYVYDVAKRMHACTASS
Aurora kinase C (Homo sapiens), sequence (Q9UQB9 whole entry, the tested form may be a part): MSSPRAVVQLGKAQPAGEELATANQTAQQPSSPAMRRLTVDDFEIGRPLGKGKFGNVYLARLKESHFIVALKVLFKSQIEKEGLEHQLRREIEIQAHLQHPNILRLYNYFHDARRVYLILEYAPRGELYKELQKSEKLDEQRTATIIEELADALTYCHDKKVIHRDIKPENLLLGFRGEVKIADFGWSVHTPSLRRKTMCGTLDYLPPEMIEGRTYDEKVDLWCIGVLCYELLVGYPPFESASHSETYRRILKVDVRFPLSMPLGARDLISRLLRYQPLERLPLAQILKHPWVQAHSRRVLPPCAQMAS

Row | Activity [3] | Activity [6] | Activity [7] | Activity [8] | Activity [10] | Activity [11] | Activity [12] | Activity [13] | Activity [14] | Activity [16] | Activity [17] | microsomal CLint [19] | Papp A→B [20] | microsomal CLint [21] | IC50 [22] | Compound | Activity [15] | also measured
1 | -11% | -9% | -26% | -3% | -69% | -2% | -28% | -22% | -8% | -46% | -2% | – | – | – | – | Nc1nccc(-c2c[nH]c3ncccc23)n1 [MERIOLIN 1] | -40% | Activity [1]: 15%; Activity [2]: -17%; Activity [4]: -30%; Activity [5]: -23%; Activity [9]: -31%; Activity [18]: -75%
2 | – | -49% | -41% | – | – | -34% | -73% | -78% | – | -71% | – | < 10 µL/min/mg | 1.3 ×10⁻⁶ cm/s | < 10 µL/min/mg | – | CCc1cc(-c2c[nH]c3ncc(-c4cnn(C5CCNCC5)c4)cc23)nc(N)n1 | -95% | –
3 | 1% | -4% | -6% | -15% | -52% | – | -18% | -48% | 17% | -17% | 4% | – | – | – | > 10 µM | CCCCc1cc(-c2c[nH]c3ncccc23)nc(N)n1 | -21% | –
4 | – | -40% | -41% | – | – | -27% | -55% | -91% | – | -92% | – | < 10 µL/min/mg | 0.3 ×10⁻⁶ cm/s | < 10 µL/min/mg | > 30 µM | CCCCc1cc(-c2c[nH]c3ncc(-c4cnn(C5CCNCC5)c4)cc23)nc(N)n1 | -96% | Ratio [23]: 37
